From patent publication US20260250290A1 (BRISTOL-MYERS SQUIBB COMPANY, priority 2023, published 2026)
Counter-ions that a name gives are not always drawn.

Biological target: T1, SGK1 (Homo sapiens, UniProt O00141)
T1 sequence (O00141 1-431): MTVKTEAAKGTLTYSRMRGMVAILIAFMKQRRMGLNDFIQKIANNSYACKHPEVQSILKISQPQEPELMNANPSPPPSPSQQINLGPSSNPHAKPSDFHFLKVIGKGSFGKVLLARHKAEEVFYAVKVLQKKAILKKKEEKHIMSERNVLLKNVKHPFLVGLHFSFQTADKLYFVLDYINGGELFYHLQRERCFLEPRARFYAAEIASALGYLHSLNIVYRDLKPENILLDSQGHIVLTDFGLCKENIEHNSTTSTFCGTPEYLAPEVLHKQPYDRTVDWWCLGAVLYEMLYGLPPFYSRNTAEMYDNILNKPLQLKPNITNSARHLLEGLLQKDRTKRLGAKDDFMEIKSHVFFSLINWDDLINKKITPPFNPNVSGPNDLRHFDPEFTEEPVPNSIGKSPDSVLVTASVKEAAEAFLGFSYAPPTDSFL
Assay: SGK1 inhibition Assay B (Echo mass spectrometry of phosphorylated peptide product)
Type: biochemical
Settings: 60 min at room temperature
Procedure: 20 μl of 2 nM SGK1 were added in 20 mM Hepes+10 mM MgCl2+0015% Brij-35+4 mM DTT+0.05 mg/ml BSA and the reaction incubated for 60 min at room temperature. The enzymatic reaction was quenched by addition 10 μl of 1% Formic Acid+150 nM Internal Standard: FITC-(Ahx)KKRNRR(pS)VA^—OH (final concentration). The plates are spun down at 3700 RPM for 10 minutes to remove all precipitate. Samples were loaded on to the Sciex Echo Mass Spec attached to a Sciex 6500 equipped with ESI and was used to analyze the phosphorylated peptide product. MRM transition of product and internal standard were monitored at m/z 755 to 937.5 and m/z 757.7 to 941.3 respectively. Peak area of analyte was normalized with internal standard.
Dose response curves were generated to determine the concentration required for inhibiting 50% of the enzyme activity. Compounds were dissolved at 10 mM in dimethylsulfoxide (DMSO) and evaluated at eleven concentrations.

Compound	IC50
Cc1nc(O[C@H]2CC[C@@H](N(C)C)CC2)c(C(=O)N[C@@H]2CCCN(c3cc(-c4ccc(=O)n(CC(F)(F)F)n4)n4ncnc(N)c34)C2)s1 [Example 973, N—((R)-1-(4-amino-7-(6-oxo-1-(2,2,2-trifluoroethyl)-1,6-dihydropyridazin-3-yl)pyrrolo[2,1-f][1,2,4]triazin-5-yl)piperidin-3-yl)-4-(((1s,4S)-4-(dimethylamino)cyclohexyl)oxy)-2-methylthiazole-5-carboxamide]	4 nM
Cc1cc(-c2cc(N3CCC[C@@H](NC(=O)c4cccc(N5CC6(C5)CN(C(C)C)C6)n4)C3)c3c(N)ncnn23)ccc1-n1cnnn1 [Example 822]	4 nM
CC(=O)c1ccc(-c2cc(N3CCC[C@@H](NC(=O)c4sc(Cl)cc4O[C@@H]4C[C@H]5CC[C@@H](C4)N5C)C3)c3c(N)ncnn23)cn1 [Example 838, N-((R)-1-(7-(6-acetylpyridin-3-yl)-4-aminopyrrolo[2,1-f][1,2,4]triazin-5-yl)piperidin-3-yl)-5-chloro-3-(((1R,3s,5S)-8-methyl-8-azabicyclo[3.2.1]octan-3-yl)oxy)thiophene-2-carboxamide]	2 nM
Cc1nc(OC2CC3CC2CN3C(C)C)c(C(=O)N[C@@H]2CCCN(c3cc(-c4ccc(-n5cnnn5)c(F)c4)n4ncnc(N)c34)C2)s1 (single isomer, unassigned) [Example 949]	0.8 nM
Cc1nc(O[C@H]2CC[C@]3(CCCN3)CC2)c(C(=O)N[C@@H]2CCCN(c3cc(-c4ccc(C(N)=O)c(F)c4)n4ncnc(N)c34)C2)s1 [Example 930, 4-(((5S,8r)-1-azaspiro[4.5]decan-8-yl)oxy)-N—((R)-1-(4-amino-7-(4-carbamoyl-3-fluorophenyl)pyrrolo[2,1-f][1,2,4]triazin-5-yl)piperidin-3-yl)-2-methylthiazole-5-carboxamide, TFA salt]	1 nM
COC(=O)N1CC=C(c2cc(N3CCC[C@@H](NC(=O)c4sc(C)nc4OC4CC5CC(C4)N(C(C)C)C5)C3)c3c(N)ncnn23)C1 (single isomer, unassigned) [Example 953]	7 nM
COC(=O)N1CC=C(c2cc(N3CCC[C@@H](NC(=O)c4sc(C)nc4OC4CCN(C)CC4)C3)c3c(N)ncnn23)C1 [Example 360, Methyl (R)-3-(4-amino-5-(3-(2-methyl-4-((1-methylpiperidin-4-yl)oxy)thiazole-5-carboxamido)piperidin-1-yl)pyrrolo[2,1-f][1,2,4]triazin-7-yl)-2,5-dihydro-1H-pyrrole-1-carboxylate]	14 nM
CC(=O)N1CC=C(c2cc(N3CCC[C@@H](NC(=O)c4sc(Cl)cc4OC4CCN(C)C(C)(C)C4)C3)c3c(N)ncnn23)C1 (single isomer, unassigned) [Example 948]	2 nM
CC(C)N1CC2(CN(c3cccc(C(=O)N[C@@H]4CCCN(c5cc(-c6ccc(S(C)(=O)=O)nc6)n6ncnc(N)c56)C4)n3)C2)C1 [Example 834, (R)-N-(1-(4-amino-7-(6-(methylsulfonyl)pyridin-3-yl)pyrrolo[2,1-f][1,2,4]triazin-5-yl)piperidin-3-yl)-6-(6-isopropyl-2,6-diazaspiro[3.3]heptan-2-yl)picolinamide]	20 nM
Cc1nc(OC2CC(C)(C)N(C)C(C)(C)C2)c(C(=O)N[C@@H]2CCCN(c3cc(-c4ccc(-n5cnnn5)c(F)c4)n4ncnc(N)c34)C2)s1 [Example 965, (R)—N-(1-(4-amino-7-(3-fluoro-4-(1H-tetrazol-1-yl)phenyl)pyrrolo[2,1-f][1,2,4]triazin-5-yl)piperidin-3-yl)-2-methyl-4-((1,2,2,6,6-pentamethylpiperidin-4-yl)oxy) thiazole-5-carboxamide]	3 nM
Cc1nc(OC2CCCC(NC(C)C)CCC2)c(C(=O)N[C@@H]2CCCN(c3cc(-c4ccc(C(N)=O)c(F)c4)n4ncnc(N)c34)C2)s1 (stereo partly drawn) [Example 942, (R)—N-(1-(4-Amino-7-(4-carbamoyl-3-fluorophenyl)pyrrolo[2,1-f][1,2,4]triazin-5-yl)piperidin-3-yl)-4-((5-(isopropylamino)cyclooctyl)oxy)-2-methylthiazole-5-carboxamide]	4 nM
Cc1nc(OC2CCC(NC3CC3)CC2)c(C(=O)N[C@@H]2CCCN(c3cc(-c4ccc(C(N)=O)c(F)c4)n4ncnc(N)c34)C2)s1 (single isomer, unassigned) [Example 941]	1 nM
Cc1cc(O[C@@H]2C[C@H]3CC[C@@H](C2)N3C)c(C(=O)N[C@@H]2CCCN(c3cc(-c4cc(F)c(-n5cnnn5)c(F)c4)n4ncnc(N)c34)C2)s1 [Example 844, N-((R)-1-(4-amino-7-(3,5-difluoro-4-(1H-tetrazol-1-yl)phenyl)pyrrolo[2,1-f][1,2,4]triazin-5-yl)piperidin-3-yl)-5-methyl-3-(((1R,3s,5S)-8-methyl-8-azabicyclo[3.2.1]octan-3-yl)oxy)thiophene-2-carboxamide]	3 nM
CCOC1=C(C(=O)N[C@@H]2CCCN(c3cc(C4=CCN(C(C)=O)C4)n4ncnc(N)c34)C2)CN(c2ccc(OC)cc2)C1=O [Example 755, (R)-N-(1-(7-(1-acetyl-2,5-dihydro-1H-pyrrol-3-yl)-4-aminopyrrolo[2,1-f][1,2,4]triazin-5-yl)piperidin-3-yl)-4-ethoxy-1-(4-methoxyphenyl)-5-oxo-2,5-dihydro-1H-pyrrole-3-carboxamide]	21 nM
Cc1nc(O[C@H]2CC[C@@H](NCCC#N)CC2)c(C(=O)N[C@@H]2CCCN(c3cc(-c4ccc(C(N)=O)c(F)c4)n4ncnc(N)c34)C2)s1 [Example 979, N—((R)-1-(4-Amino-7-(4-carbamoyl-3-fluorophenyl)pyrrolo[2,1-f][1,2,4]triazin-5-yl)piperidin-3-yl)-4-(((1s,4S)-4-((2-cyanoethyl)amino)cyclohexyl)oxy)-2-methylthiazole-5-carboxamide]	4 nM
Cc1nc(O[C@@H]2C[C@H]3CC[C@@H](C2)N3C)c(C(=O)N[C@@H]2CCCN(c3cc(-c4ccc5c(c4)CNC5=O)n4ncnc(N)c34)C2)s1 [Example 961, N-((R)-1-(4-amino-7-(1-oxoisoindolin-5-y1)pyrrolo[2,1-f][1,2,4]triazin-5-y1)piperidin-3-y1)-2-methy1-4-(((IR,3s,5S)-8-methyl-8-azabicyclo[3.2.1]octan-3-yl)oxy)thiazole-5-carboxamide]	5 nM
Cc1nnnn1-c1ccc(-c2cc(N3CCC[C@@H](NC(=O)c4cccc(N5CC6(C5)CN(C(C)C)C6)n4)C3)c3c(N)ncnn23)cc1 [Example 829, (R)-N-(1-(4-amino-7-(4-(5-methyl-1H-tetrazol-1-yl)phenyl)pyrrolo[2,1-f][1,2,4]triazin-5-yl)piperidin-3-yl)-6-(6-isopropyl-2,6-diazaspiro[3.3]heptan-2-yl)picolinamide]	2 nM

Continued, values first:

IC50	Compound
10 nM	Cc1nc(OC2CC3CCC2CN3C)c(C(=O)N[C@@H]2CCCN(c3cc(-c4ccc(-n5cnnn5)nc4)n4ncnc(N)c34)C2)s1 (single isomer, unassigned) [Example 992]
1.1 nM	[2H]C([2H])([2H])N(C1CCC(Oc2nc(C)sc2C(=O)N[C@@H]2CCCN(c3cc(-c4ccnc(OC)n4)n4ncnc(N)c34)C2)CC1)C([2H])([2H])[2H] (stereo partly drawn) [Example 1031, (R)—N-(1-(4-amino-7-(2-methoxypyrimidin-4-yl)pyrrolo[2,1-f][1,2,4]triazin-5-yl)piperidin-3-yl)-4-((4-(bis(methyl-d3)amino)cyclohexyl)oxy)-2-methylthiazole-5-carboxamide]
0.6 nM	Cc1nc(OC2CCC(N3CCC3)CC2)c(C(=O)N[C@@H]2CCCN(c3cc(-c4csc(C(N)=O)n4)n4ncnc(N)c34)C2)s1 (stereo partly drawn) [Example 1050, (R)-4-(4-amino-5-(3-(4-((4-(azetidin-1-yl)cyclohexyl)oxy)-2-methylthiazole-5-carboxamido)piperidin-1-yl)pyrrolo[2,1-f][1,2,4]triazin-7-yl)thiazole-2-carboxamide]
2.1 nM	CC[C@H](CO)N[C@H]1CC[C@@H](Oc2nc(C)sc2C(=O)N[C@@H]2CCCN(c3cc(C4=C(C)C(=O)OC4)n4ncnc(N)c34)C2)CC1 [Example 1010, N-((R)-1-(4-amino-7-(4-methyl-5-oxo-2,5~dihydrofuran~3-yl)pyrrolo[2,1-f][1,2,4]triazin-5-y1)piperidin-3-y1)-4-((4-(((R)-1-hydroxybutan-2-yl)amino)cyclohexyl)oxy)-2-methylthiazole-5-carboxamide]
0.8 nM	CC1=C(c2cc(N3CCCC(NC(=O)c4sc(C)nc4OC4CCC(N5CCC5)CC4)C3)c3c(N)ncnn23)COC1=O [Example 1006, (R)-N-(1-(4-amino-7-(4-methyl-5-oxo-2,5-dihydrofuran-3-yl)pyrrolo[2,1-f][1,2,4]triazin-5-y1)piperidin-3-y1)-4-((4-(azetidin-1-yl)cyclohexyl)oxy)-2-methylthiazole-5-carboxamide]
0.8 nM	CCC1=C(c2cc(N3CCC[C@@H](NC(=O)c4sc(C)nc4O[C@H]4CC[C@@H](N(C)C)CC4)C3)c3c(N)ncnn23)COC1=O [Example 1018, N—((R)-1-(4-amino-7-(4-ethyl-5-oxo-2,5-dihydrofuran-3-yl)pyrrolo[2,1-f][1,2,4]triazin-5-yl)piperidin-3-yl)-4-(((1S,4S)-4-(dimethylamino)cyclohexyl)oxy)-2-methylthiazole-5-carboxamide]
1 nM	CC(=O)N1CC=C(c2cc(N3CCC[C@@H](NC(=O)c4sc(Cl)cc4OC4CCCN(C(C)C)CC4)C3)c3c(N)ncnn23)C1 (stereo partly shown) [Example 987]
6 nM	CCN1CCC(Oc2nc(C)sc2C(=O)N[C@@H]2CCCN(c3cc(-c4ccc(C(N)=O)c(F)c4)n4ncnc(N)c34)C2)CC12CCC2 (stereo partly shown) [Example 982]
